Test system: Trypanosoma cruzi
Assay: Antitrypanosomal activity against Trypanosoma cruzi Tulahuen 2 assessed as inhibition of growth of epimastigotes at 25 uM after 5 days by MTT assay relative to control
Format: functional
Conditions: Tulahuen 2, 120 h, read-out: GI

| Compound | inhibition of growth at 25 µM |
| --- | --- |
| Cc1c(C(=O)NNC(N)=S)no[n+]1[O-] | 9% |
| NC(=O)c1nonc1CN1CCCCC1 | 3% |
| CN(C)Cc1no[n+]([O-])c1C(N)=O | 11% |
| N#Cc1no[n+]([O-])c1-c1ccccc1 | 15% |
| Nc1nonc1-c1ccccc1 | 45% |
| Nc1no[n+]([O-])c1C(=O)N1CCCCC1 | 17% |
| Cc1nonc1-c1nc2ccccc2o1 | 15% |
| [O-][n+]1onc(/C=N/O)c1CO | 3% |
| CCNCCCO[N+](=O)[O-] | 0% |
| CCOc1nonc1S(=O)(=O)c1ccccc1 | 25% |
| NC(=O)c1c(-c2ccccc2)no[n+]1[O-] | 35% |
| O=S(=O)(c1ccccc1)c1nonc1-c1c[nH]cn1 | 12% |
| CN(C)Cc1nonc1C#N | 13% |
| Cc1c(/C=N/O)no[n+]1[O-] | 32% |
| Cc1ncc([N+](=O)[O-])n1CCNCc1nonc1C#N | 23% |
| CN(C)Cc1nonc1C(N)=O | 0% |
| Cc1nonc1CNCCn1c([N+](=O)[O-])cnc1C | 18% |
| O=C(O)c1ccc(OCC(CO[N+](=O)[O-])O[N+](=O)[O-])cc1 (stereo not given) | 0% |
| Cc1c(-c2ccc(C(=O)O)cc2)no[n+]1[O-] | 34% |
| O=S(=O)(CCO)c1nonc1-c1ccccc1 | 17% |
| O=Cc1ccc(OCC(CO[N+](=O)[O-])O[N+](=O)[O-])cc1 (stereo not given) | 1% |
| Cc1c(CN(C)C)no[n+]1[O-] | 0% |
| N#Cc1c(CN2CCC(Cc3c[nH]cn3)CC2)no[n+]1[O-] | 9% |
| Cc1ncc([N+](=O)[O-])n1CCOCC[N+](=O)[O-] | 13% |
| NC(=O)c1c(CO)no[n+]1[O-] | 0% |

| Compound | inhibition of growth at 25 µM |
| --- | --- |
| O=C(O)COc1no[n+]([O-])c1S(=O)(=O)c1ccccc1 | 35% |
| Cc1nonc1-c1nc2ccccc2s1 | 22% |
| Cc1nonc1-c1nc(S)n[nH]1 | 32% |
| CCOc1nonc1-c1ccccc1 | 35% |
| COc1cc(CN2CCN(c3ccc(CC(CO[N+](=O)[O-])O[N+](=O)[O-])cc3)CC2)cc(OC)c1OC (stereo not given) | 3% |
| CN(C)CCCOc1nonc1-c1ccccc1 | 0% |
| NC(=O)c1c(CNC(c2c[nH]cn2)C2CCNCC2)no[n+]1[O-] (stereo not given) | 17% |
| N#Cc1nonc1CN1CCC(Cc2c[nH]cn2)CC1 | 0% |
| Cc1no[n+]([O-])c1/C=N/O | 17% |
| Cc1nonc1C(=O)NNC(N)=S | 16% |
| Cc1nonc1CN1CCC(Cc2c[nH]cn2)CC1 | 21% |
| CN(C)Cc1no[n+]([O-])c1C#N | 5% |
| Cc1c(CN2CCC(Cc3c[nH]cn3)CC2)no[n+]1[O-] | 4% |
| Cc1no[n+]([O-])c1-c1nc(S)n[nH]1 | 40% |
| O=C(O)CSc1nonc1-c1ccccc1 | 31% |
| CCOCC.NC(=O)c1nonc1CNC(c1c[nH]cn1)C1CCNCC1 (stereo not given) | 0% |
| O=C(O)c1ccc(CC(CO[N+](=O)[O-])O[N+](=O)[O-])cc1 (stereo not given) | 0% |
| [O-][n+]1onc(-c2ccccc2)c1SC1CCNCC1 | 35% |
| O=Cc1ccc(CC(CO[N+](=O)[O-])O[N+](=O)[O-])cc1 (stereo not given) | 0% |
| [O-][n+]1onc(CO)c1/C=N/O | 2% |
| NC(=O)c1c(CN2CCC(Cc3c[nH]cn3)CC2)no[n+]1[O-] | 6% |
| Cc1no[n+]([O-])c1C(=O)NNC(N)=S | 10% |
| Cc1nonc1-c1ccc(C(=O)O)cc1 | 32% |
| CS(=O)(=O)CCOc1no[n+]([O-])c1-c1ccccc1 | 11% |
| CS(=O)(=O)CCOc1nonc1-c1ccccc1 | 4% |
